Results taken from patent US20110200531A1, “TREATMENT AND DIAGNOSIS OF CENTRAL NERVOUS SYSTEM DISORDERS” (THE REGENTS OF THE UNIVERSITY OF CALIFORNIA, priority 2009, published 2011).
Entries after “also recorded” stand apart in the source; their conditions may differ.

What was measured:
retinas of 3×Tg-AD mice = assay: Retinal pathology in 3×Tg-AD mice; assay type: in vivo
5×FAD mouse brains = assay: Abeta immunoreactivity (6E10) in 5×FAD mouse brains; assay type: in vivo, mice; conditions: chow containing 300 mg/Kg from postnatal day 61 for 4 months
Description: Animal tissues were perfused with 1×PBS followed by overnight fixation in 4% paraformaldehyde in cold room. Vibrotome sections (˜50 μm thick) were immunostained with 6E10 antibody, which recognizes all forms of Abeta, and visualized by fluorescence microscopy.

Thy1.2 promoter = assay: Luciferase-mediated Thy1.2 activity reporter in N2A cells; assay type: cell-based, mouse; conditions: TMP 50 μM, 24 hr
cells under stress = assay: Production of peroxides in cells under stress; assay type: cell-based
3×Tg-AD mouse brain = assay: Brain pathology in 3×Tg-AD mice fed TMP-containing diet; assay type: in vivo
Description: (A) 16-month old triple-transgenic mice (3×Tg-AD, females) were fed with TMP containing (300 mg TMP/Kg diet) or nutrients-matched control diet made by BioSery (Frenchtown, N.J.) for 70 days. […] Animals were euthanized and perfused with PBS following behavioral analyses. Half the brain was fixed with 4% paraformaldehyde (PFA) in 1×PBS and sectioned using a microtome at 40 μm, while the other half-brain was dissected and rapidly frozen for biochemical analyses. […] The boxed areas in (a) is shown in (b) at higher magnification. […] The boxed areas in a & c are shown in b & d at higher magnification. Nuclei were stained as red by propidium iodide (PI). Scale bar=400 μm in A.a&c; 100 μm in B.a&c; 80 μm A.d&e, B.d; and 60 μm in A.b, B.b. (C) Glutathione (GSH) contents in the mouse brains were measured in the cortical lysates prepared from the 3×Tg AD mouse brains following TMP treatments or control using a Biovison Glutathione colorimetric detection kit. Lysates from age-matched untreated wild type mouse brains were used as controls (WT).
(§1) In these mice, the earliest pathological hallmark is the accumulation of intraneuronal Aβ in the hippocampus, cortex and amygdala in 4 month old 3×Tg-AD homozygous mice. […] Between 4-6 months of age 3×Tg-AD homozygous mice develop diffuse amyloid plaques in the neocortex. At 6 months the retention deficits are associated with significant impairments in spatial learning of the Morris Water Maze task. 16 Month old triple-transgenic female mice (3×Tg-AD) were fed TMP-containing (300 mg TMP/kg diet) or nutrients-matched control diet made by Biosery for 70 days. Brain and retina pathology was evaluated by immunohistochemistry with specific antibodies and learning and memory performance were scored using the Novel Object Recognition Task and using Morris Water Maze trials.

[1] = tested on: rat brains following kainate-induced seizures; assay: Neuronal degeneration in rat brains following kainate-induced seizures (H&E, TUNEL); assay type: in vivo, Sprague-Dawley rats; conditions: KA 10.5 mg/Kg s.c., TMP 50 mg/Kg s.c. 1 hr after onset of seizures
Description: One month-old Sprague-Dawley rats were subcutaneously (s.c.) administrated kainite (KA) (10.5 mg/Kg). 1 hr after the onset of seizures animals were given TMP (50 mg/Kg, s.c.) or equal volume of vehicle. All the animals were sacrificed 24 hr after TMP or vehicle injection under deep anesthesia. […] Scale bar=100 μm in b, d, e, g, i, j, 1, n and o; and 400 μm in a, c, f, h, k and m.

[2] = tested on: Primary neurons treated with Aβ1-42; assay: Neuronal survival in primary neuronal cultures treated with pre-aggregated Aβ1-42; assay type: cell-based, C57BL mice; conditions: 50 μM TMP with pre-aggregated Aβ1-42
Description: Primary neurons prepared from postnatal 1 day C57BL mice were treated with pre-aggregated Aβ1-42 combined with either 50 μM TMP or equal volume of vehicle at day 5 after plating. […] Nuclei were counterstained as blue by Hoechst 33342 (Hoec). Scale bar=100 μm in b & e; 80 μm a, d, f; 60 μm in c; and 40 μm in B.

3×Tg-AD mice = assay: Learning and memory in 3×Tg AD mice (novel object recognition, Morris water maze); assay type: in vivo; conditions: 16-month old 3×Tg-AD females
Description: Both 16-month old 3×Tg-AD and background-matched wild type (WT) mice (females) were fed with TMPcontaining or nutrients matched control for 60 days as described in FIG. 3. (A) On day 61, all the mice were tested for object recognition as previously described. Briefly, mice (n=14 for each group) were habituated to a 60×30 cm container for 5 min. Two identical objects were placed in the bottom of the cage as mirror images of each other. The animal was trained for 5 min followed by a 5 min retention interval in the home cage. Then one of the objects in the test container was replaced with a novel object. During the 3-min probe trial, the mouse was placed in the cage and time spent investigating both objects was measured. A recognition index (R1) score is depicted as: (TimeN (in seconds for novel object)/TimeTotal (in seconds for both old and novel objects))×100. (B-D) Starting on day 62, all the mice were trained for 9 days on the Morris water maze (MWM) exactly as described for the behavior testing. […] (C) MWMprobe trial for number of platform location crosses, and (D) MWM probe trial for time spent in the target quadrant. As shown by the p values, (*) indicates significant improvement by TMP treatments with respect to the corresponding controls.
FIG. 21A-D: Improvement of learning and memory in aged 3×Tg AD mice by TMP treatment. Novel object recognition task was performed. A recognition index (R1) score is depicted as: [TimeN (in seconds for novel object)/TimeTotal (in seconds for both old and novel objects)]×100. B-D Starting on day 62, all the mice were trained for 9 days on the Morris water maze (MWM) for the behavior testing. […] (C) MWM probe trial for number of platform location crosses, and (D) MWM probe trial for time spent in the target quadrant. As shown by the p values, (*) indicates significant improvement by the compound treatments with respect to the corresponding controls.
as §1, with “TMP improves pathology in brains of 3×Tg-AD mice and results in increased memory and learning (See FIGS. 3, 4, and 10). In” for “In”, “16 Month old triple-transgenic female mice (3×Tg-AD) were fed TMP-containing (300 mg TMP/kg diet) or nutrients-matched control diet made by Biosery for 70 days.” left out
The ability of TMP-N to improve learning and memory in 3×Tg AD mice was assessed using novel object recognition task. […]

Cc1nc(C)c(C)nc1C [TMP, tetramethylpyrazine]
Astrocytic activation in the retinas (retinas of 3×Tg-AD mice): inhibited | Aβ plaques in the retinas (retinas of 3×Tg-AD mice): significantly reduces the number if Aβ plaques | fibril and oligomer conformations of Aβ (retinas of 3×Tg-AD mice): reduces both fibril and oligomer conformations of Aβ | retinal pathologies associated with disease (retinas of 3×Tg-AD mice): beneficial effects | Abeta immunoreactivity / deposits in brain (6E10) (5×FAD mouse brains): reduction Abeta immunoreactivity | Thy1.2 activity (luciferase-positive cells relative to all transfected cells) (Thy1.2 promoter): no influence of TMP on Thy1.2 activity | production of peroxides (cells under stress): inhibits the production of peroxides | GFAP staining (astrocyte activation, astrogliosis) in brain (3×Tg-AD mouse brain; 300 mg TMP/Kg diet, 70 days): dramatically reduced Aβ accumulation and senile plaques as well as astrogliosis; also recorded: reduced intensity of GFAP staining | Glutathione (GSH) contents in cortical lysates (3×Tg-AD mouse brain; 300 mg TMP/Kg diet, 70 days, colorimetric kit): significantly increase GSH contents | adverse effects on the health of animals (3×Tg-AD mouse brain; 300 mg TMP/Kg diet, about 40~50 mg/Kg daily per os, 70 days): no adverse effects on the health of animals have been observed | BACE-related APP cleavage and Aβ accumulation in brains (3×Tg-AD mouse brain; 3×Tg AD mouse brains): reduces BACE-related APP cleavage and Aβ accumulation | Aβ staining / Aβ accumulation and senile plaques in brain (immunohistochemistry) (3×Tg-AD mouse brain; 16-month old females, 300 mg TMP/Kg diet, about 40~50 mg/Kg daily per os, 70 days, 50 mg/kg): dramatically reduced Aβ accumulation and senile plaques; also recorded: markedly reduced levels of Aβ staining | Quantification of TUNEL-positive cells in the hippocampal regions ([1]; 24 hr): significant less number of damaged neurons | neuronal damage/degeneration by H&E and TUNEL staining, hippocampal and piriform cortex regions ([1]; sacrificed 24 hr after): attenuates neuronal degeneration; also recorded: only exhibited a few sporadic pink (1) and TUNEL-positive cells | mitochondrial depolarization (TMRM staining) [2]: very few cells | neuronal survival / morphological changes showing neuronal degeneration (DIC microscopy) ([2]; 24 hr): promotes neuronal survival; also recorded: not in these cells in the presence of TMP | Morris water maze (MWM) acquisition performance (3×Tg-AD mice; TMP diet 60 days, trained 9 days from day 62): significantly improved the performance of 3×Tg-AD mice | learning and memory (object recognition, MWM probe trials) (3×Tg-AD mice; TMP-containing diet): significant improvements in learning and memory; also recorded: improves learning and memory
